The record followed here is US20250223307A1, “MDM2/MDMX DOUBLE-TARGET INHIBITOR COMPOUND, PRODRUG, PHARMACEUTICAL COMPOSITION, AND PREPARATION METHOD THEREFOR AND USE THEREOF” (GLOBAL HEALTH DRUG DISCOVERY INSTITUTE, priority 2022, published 2025).

Experiment [1] has as its target T1, MDMX (Homo sapiens, UniProt O15151).
T1 sequence (O15151 2-134): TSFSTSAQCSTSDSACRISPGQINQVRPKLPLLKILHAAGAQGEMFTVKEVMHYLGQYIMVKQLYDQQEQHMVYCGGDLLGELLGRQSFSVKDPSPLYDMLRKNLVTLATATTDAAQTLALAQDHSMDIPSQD
Kind of experiment: HTRF test: inhibition of MDMX-p53 protein binding.

In experiment [2] the test system is Blood cancer cells RS4; 11. Nature of the experiment: CellTiter Glo test: growth inhibition of cells. It is filed as cell-based. The following applies: Homo sapiens, 11 cells, 72 h, cell viability. The procedure: Test of Candidate Compounds on Growth Inhibition of Cells Determined by CellTiter Glo
Blood cancer cells RS4; 11 were inoculated into the 96-well cell culture plate through Multidrop 3000 cells per well, with a volume of 100 μL. The final compound concentration ranged from 50 μM to 0.01 μM at 9 concentration gradients and the DMSO final concentration was 0.1%. The cells and compounds were co-incubated in a cell incubator at 37° C. for 72 h, a CellTiter-Glo Luminescent Cell Viability Assay reagent was added 100 μL/well, the cells and compound were uniformly mixed and incubated at room temperature for 10 min, and Envision reading was performed. A sample treated with 50 μM of a positive compound was taken as a positive control and a sample treated with 100 nL of DMSO was taken as a negative control.

Experiment [3] concerns the target MDM2 (Homo sapiens, UniProt Q00987). Nature of the experiment: HTRF test: inhibition of MDM2-p53 protein binding.

pIC50: −log10 of the molar value. Where only a bound is given, the exact number is not on record here.

Chain of MDM2 (Q00987 2-138): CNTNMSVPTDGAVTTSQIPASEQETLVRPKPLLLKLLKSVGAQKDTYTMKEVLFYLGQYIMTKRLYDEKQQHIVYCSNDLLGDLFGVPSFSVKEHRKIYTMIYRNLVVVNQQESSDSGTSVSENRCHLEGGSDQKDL

As for `N#Cc1ccc(C(C(=O)NCCO)N2C(=O)N/C(=C\c3c[nH]c4cc(Cl)ccc34)C2=O)cc1` (stereo not drawn) [Compound 61, (Z)-2-(4-((6-chloro-1H-indol-3-yl)methylene)-2,5-dioxoimidazolidin-1-yl)-2-(4-cyanophenyl)-N-(2-hydroxyethyl)acetamide], the figures for the negative-log IC50 (pIC50) in experiment [1], in experiment [2] and in experiment [3] were 7.00 to 8.00, 5.00 to 6.00 and above 8.00, respectively.
The matching figures for `Cc1c(Cl)ccc2c(/C=C3\NC(=O)N(C(C(=O)NCC45CC(O)(C4)C5)c4ccc(F)c(F)c4)C3=O)c[nH]c12` (stereo not drawn) [Compound 68, (Z)-2-(4-((6-chloro-7-methyl-1H-indol-3-yl)methylene)-2,5-dioxoimidazolidin-1-yl)-2-(3,4-difluorophenyl)-N-((3-hydroxylbicyclo[1.1.1]pentan-1-yl)methyl)acetamide]: above 8.00, at least 6.00 and above 8.00.
With `N#Cc1ccc([C@@H](CO)N2C(=O)N/C(=C\c3c[nH]c4cc(Cl)ccc34)C2=O)cc1` [Compound 50, (S,Z)-4-(1-(4-((6-chloro-1H-indol-3-yl)methylene)-2,5-dioxoimidazolidin-1-yl)-2-hydroxyethyl)benzonitrile], the pIC50 was below 7.00 in experiment [1], at least 6.00 in experiment [2] and 7.00 to 8.00 in experiment [3].
With `O=C1N/C(=C\c2c[nH]c3c(F)c(Cl)ccc23)C(=O)N1C(CO)c1ccc(Cl)c(F)c1F` (stereo not drawn) [Compound 105, (Z)-3-(1-(4-chloro-2,3-difluorophenyl)-2-hydroxyethyl)-5-((6-chloro-7-fluoro-1H-indol-3-yl)methylene)imidazolidine-2,4-dione], the results for the negative logarithm of the IC50 (pIC50) in experiment [1], in experiment [2] and in experiment [3] were 7.00 to 8.00, at least 6.00 and 7.00 to 8.00, respectively.
Turning to `O=C1N/C(=C\c2c[nH]c3c(F)c(Cl)ccc23)C(=O)N1Cc1ccc(Cl)cc1` [Compound 15, (Z)-5-((6-chloro-7-fluoro-1H-indol-3-yl)methylene)-3-(4-chlorobenzyl)imidazolidine-2,4-dione], the negative logarithm of the IC50 (pIC50) in experiment [1] is 7.00 to 8.00; in experiment [2], at least 6.00; in experiment [3], 7.00 to 8.00.
Take `Cc1c(Cl)ccc2c(/C=C3\NC(=O)N(Cc4ccc(C#N)cc4)C3=O)c[nH]c12` [Compound 19, (Z)-4-((4-((6-chloro-7-methyl-1H-indol-3-yl)methylene)-2,5-dioxoimidazolidin-1-yl)methyl)benzonitrile]: the negative-log IC50 (pIC50) in experiment [1] is above 8.00; in experiment [2] it was at least 6.00; in experiment [3], above 8.00.
For the compound `Cc1c(Cl)ccc2c(/C=C3\NC(=O)N(C(C(=O)NC45CC(O)(C4)C5)c4ccc(F)c(F)c4)C3=O)c[nH]c12` (stereo not drawn) [Compound 57, (Z)-2-(4-((6-chloro-7-methyl-1H-indol-3-yl)methylene)-2,5-dioxoimidazolidin-1-yl)-2-(3,4-difluorophenyl)-N-(3-hydroxylbicyclo[1.1.1]pentan-1-yl)acetamide], the negative logarithm of the IC50 (pIC50) in experiment [1] was above 8.00; in experiment [2] it was at least 6.00; in experiment [3] it was above 8.00.
As for `N#Cc1cccc(CN2C(=O)N/C(=C\c3c[nH]c4c(F)c(Cl)ccc34)C2=O)c1` [Compound 18, (Z)-3-((4-((6-chloro-7-fluoro-1H-indol-3-yl)methylene)-2,5-dioxoimidazolidin-1-yl)methyl)benzonitrile], the figures for the negative logarithm of the IC50 (pIC50) in experiment [1], in experiment [2] and in experiment [3] were 7.00 to 8.00, at least 6.00 and 7.00 to 8.00, respectively.
With `O=C1N/C(=C\c2c[nH]c3cc(Cl)ccc23)C(=O)N1[C@H](CO)c1ccc(F)c(F)c1` [Compound 53, (S,Z)-5-((6-chloro-1H-indol-3-yl)methylene)-3-(1-(3,4-difluorophenyl)-2-hydroxyethyl)imidazolidine-2,4-dione], the negative logarithm of the IC50 (pIC50) was above 8.00 in experiment [1], 5.00 to 6.00 in experiment [2] and above 8.00 in experiment [3].
`O=C1N/C(=C\c2c[nH]c3cc(Cl)ccc23)C(=O)N1C(CO)c1ccc(F)c(F)c1` (stereo not drawn) [Compound 26]: the values for the negative logarithm of the IC50 (pIC50) in experiment [1], in experiment [2] and in experiment [3] were above 8.00, at least 6.00 and above 8.00, respectively.
Take `Cc1c(Cl)ccc2c(/C=C3\NC(=O)N(C(CO)c4ccc(Cl)cc4)C3=O)c[nH]c12` (stereo not drawn) [Compound 70, (Z)-5-((6-chloro-7-methyl-1H-indol-3-yl)methylene)-3-(1-(4-chlorophenyl)-2-hydroxyethyl)imidazolidine-2,4-dione]: the negative-log IC50 (pIC50) was 7.00 to 8.00 in experiment [1], at least 6.00 in experiment [2] and 7.00 to 8.00 in experiment [3].
For the compound `COc1c(Cl)ccc2c(/C=C3\NC(=O)N(Cc4ccc(F)c(F)c4)C3=O)c[nH]c12` [Compound 8, (Z)-5-((6-chloro-7-methoxyl-1H-indol-3-yl)methylene)-3-(3,4-difluorobenzyl)imidazolidine-2,4-dione], the figures for the pIC50 in experiment [1], in experiment [2] and in experiment [3] were 7.00 to 8.00, 5.00 to 6.00 and 7.00 to 8.00, respectively.
For the compound `Cc1c(Cl)ccc2c(/C=C3\NC(=O)N(C(C(=O)NCCO)c4ccc(Cl)cc4)C3=O)c[nH]c12` (stereo not drawn) [Compound 48, (Z)-2-(4-((6-chloro-7-methyl-1H-indol-3-yl)methylene)-2,5-dioxoimidazolidin-1-yl)-2-(4-chlorophenyl)-N-(2-hydroxyethyl)acetamide], the negative-log IC50 (pIC50) in experiment [1] was above 8.00; in experiment [2] it was at least 6.00; in experiment [3] it was above 8.00.
For the compound `N#Cc1ccc(CN2C(=O)N/C(=C\c3c[nH]c4c(OCF)c(Cl)ccc34)C2=O)cc1` [Compound 13, (Z)-4-((4-((6-chloro-7-(fluoromethoxyl)-1H-indol-3-yl)methylene)-2,5-dioxoimidazolidin-1-yl)methyl)benzonitrile], the pIC50 in experiment [1] was 7.00 to 8.00; in experiment [2], below 5.00; in experiment [3], above 8.00.
The matching figures for `N#Cc1ccc(C(C(=O)NCCO)N2C(=O)N/C(=C\c3cn(P(=O)(O)O)c4c(F)c(Cl)ccc34)C2=O)cc1F` (stereo not drawn) [Compound 56, (Z)-(6-chloro-3-((1-(1-(4-cyano-3-fluorophenyl)-2-((2-hydroxyethyl)amino)-2-oxyethyl)-2,5-dioxoimidazolidin-4-ylene)methyl)-7-fluoro-1H-indol-1-yl)phosphonic acid]: 7.00 to 8.00, 5.00 to 6.00 and 7.00 to 8.00.
Consider `O=C1N/C(=C\c2c[nH]c3c(F)c(Cl)ccc23)C(=O)N1Cc1c(F)cc(Cl)cc1F` [Compound 102, (Z)-3-(4-chloro-2,6-difluorobenzyl)-5-((6-chloro-7-fluoro-1H-indol-3-yl)methylene)imidazolidine-2,4-dione], for which the negative-log IC50 (pIC50) was 7.00 to 8.00 in experiment [1], at least 6.00 in experiment [2] and 7.00 to 8.00 in experiment [3].
Turning to `Cc1c(Cl)ccc2c(/C=C3\NC(=O)N([C@H](CO)c4ccc(C#N)cc4)C3=O)c[nH]c12` [Compound 97, (S,Z)-4-(1-(4-((6-chloro-7-methyl-1H-indol-3-yl)methylene)-2,5-dioxoimidazolidin-1-yl)-2-hydroxyethyl)benzonitrile], the pIC50 was 7.00 to 8.00 in experiment [1], at least 6.00 in experiment [2] and 7.00 to 8.00 in experiment [3].
As to `N#Cc1c(F)cc(CN2C(=O)N/C(=C\c3c[nH]c4c(F)c(Cl)ccc34)C2=O)cc1F` [Compound 35], the negative logarithm of the IC50 (pIC50) in experiment [1] was 7.00 to 8.00; in experiment [2], at least 6.00; in experiment [3], 7.00 to 8.00.
For `N#Cc1ccc(C(CO)N2C(=O)N/C(=C\c3c[nH]c4c(F)c(Cl)ccc34)C2=O)cc1F` (stereo not drawn) [Compound 37, (Z)-4-(1-(4-((6-chloro-7-fluoro-1H-indol-3-yl)methylene)-2,5-dioxoimidazolidin-1-yl)-2-hydroxyethyl)-2-fluorobenzonitrile], the negative-log IC50 (pIC50) in experiment [1] was 7.00 to 8.00; in experiment [2] it was at least 6.00; in experiment [3] it was 7.00 to 8.00.
As to `O=C1N/C(=C\c2c[nH]c3c(F)c(Cl)ccc23)C(=O)N1C(CO)c1ccc(F)cc1` (stereo not drawn) [Compound 84, (Z)-5-((6-chloro-7-fluoro-1H-indol-3-yl)methylene)-3-(1-(4-fluorophenyl)-2-hydroxyethyl)imidazolidine-2,4-dione], the figures for the pIC50 in experiment [1], in experiment [2] and in experiment [3] were above 8.00, at least 6.00 and above 8.00, respectively.
`N#Cc1ccc(C(C(=O)NCCO)N2C(=O)N/C(=C\c3c[nH]c4c(F)c(Cl)ccc34)C2=O)cc1` (stereo not drawn) [Compound 58, (Z)-2-(4-((6-chloro-7-fluoro-1H-indol-3-yl)methylene)-2,5-dioxoimidazolidin-1-yl)-2-(4-cyanophenyl)-N-(2-hydroxyethyl)acetamide]: the figures for the pIC50 in experiment [1], in experiment [2] and in experiment [3] were above 8.00, at least 6.00 and above 8.00, respectively.
Regarding `O=C1N/C(=C\c2c[nH]c3cc(Cl)ccc23)C(=O)N1Cc1ccc(F)cc1` [Compound 3, (Z)-5-((6-chloro-1H-indol-3-yl)methylene)-3-(4-fluorobenzyl)imidazolidine-2,4-dione], the pIC50 is 7.00 to 8.00 in experiment [1], at least 6.00 in experiment [2] and 7.00 to 8.00 in experiment [3].
Turning to `O=C1N/C(=C\c2c[nH]c3cc(Cl)ccc23)C(=O)N1Cc1ccc(F)c(F)c1` [Compound 1, (Z)-5-((6-chloro-1H-indol-3-yl)methylene)-3-(3,4-difluorobenzyl)imidazolidine-2,4-dione], the figures for the pIC50 in experiment [1], in experiment [2] and in experiment [3] were 7.00 to 8.00, 5.00 to 6.00 and 7.00 to 8.00, respectively.
